In patent publication US20140121168A1, “ANTAGONISTS OF TRPV1 RECEPTOR” (ANTAGONISTS OF TRPV1 RECEPTOR, priority 2011, published 2014):
Where a SMILES comes first, the peptide text is derived from it. Bridges are numbered along the chain shown (N, C = ends). [ ]: non-standard residue; d: D form. d(aThr) = C[C@@H](O)[C@@H](N)C(=O)O; Dhb = C/C=C(\N)C(=O)O

Target: TRPV1 (Homo sapiens, UniProt Q8NER1)
Test: TRPV1 assays, inhibition of capsaicin response (cell line not stated for the IC50 values)

Chain of TRPV1 (Q8NER1 whole entry): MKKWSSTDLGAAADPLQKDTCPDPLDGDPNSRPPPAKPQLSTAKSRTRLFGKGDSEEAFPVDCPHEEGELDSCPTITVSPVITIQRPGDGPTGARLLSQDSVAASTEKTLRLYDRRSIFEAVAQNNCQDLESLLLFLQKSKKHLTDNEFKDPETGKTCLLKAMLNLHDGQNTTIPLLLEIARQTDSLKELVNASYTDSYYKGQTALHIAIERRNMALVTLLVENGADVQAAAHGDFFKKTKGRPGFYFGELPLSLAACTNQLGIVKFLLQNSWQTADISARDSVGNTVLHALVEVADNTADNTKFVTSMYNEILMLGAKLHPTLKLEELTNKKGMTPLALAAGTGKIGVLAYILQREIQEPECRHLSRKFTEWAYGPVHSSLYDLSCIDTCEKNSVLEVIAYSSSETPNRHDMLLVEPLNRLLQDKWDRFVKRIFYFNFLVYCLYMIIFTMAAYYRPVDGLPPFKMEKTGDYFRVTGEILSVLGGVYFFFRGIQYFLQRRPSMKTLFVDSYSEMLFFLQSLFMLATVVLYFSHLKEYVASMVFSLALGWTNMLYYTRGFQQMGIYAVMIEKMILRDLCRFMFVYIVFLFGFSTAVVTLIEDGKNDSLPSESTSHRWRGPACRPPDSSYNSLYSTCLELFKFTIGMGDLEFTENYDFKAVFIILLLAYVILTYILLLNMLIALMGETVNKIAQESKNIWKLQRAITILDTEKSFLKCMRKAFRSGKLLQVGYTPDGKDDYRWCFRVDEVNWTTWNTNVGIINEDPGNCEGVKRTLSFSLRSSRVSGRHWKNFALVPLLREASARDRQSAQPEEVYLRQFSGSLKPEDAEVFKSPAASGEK

C/C=C1\NC(=O)[C@H](C)NC(=O)[C@H](C(C)C)NC(=O)[C@H](NC(=O)[C@H](Cc2ccccc2)NC(=O)[C@@H](CC(C)C)NC(=O)[C@@H](Cc2ccccc2)NC(C)=O)[C@@H](C)OC1=O [compound 1, A-3302-B] (Ac-[dF][dL]F[d(aThr)]VA[Dhb]; ester 4-C)
inhibitory activity on TRPV1 (in words): substantial inhibitory activity

Nobilamide E [compound 8]
inhibitory activity on TRPV1 (in words): inactive
